Measured values taken from US10041044B2, “Age-associated clonal hematopoiesis accelerates cardio-metabolic disease development” (TRUSTEES OF BOSTON UNIVERSITY, priority 2016, dated 2018).

What was measured:
[1] = system: atherosclerotic plaque in Ldlr−/− BMT mice; assay: Aortic root plaque size in high fat/high cholesterol diet-fed competitive-BMT Ldlr−/− mice; format: in vivo; settings: continuous infusion 5 mg/kg/day via subcutaneous osmotic pumps
Description: Aortic root plaque size in high fat/high cholesterol diet-fed 10% KO-BMT mice and 10% WT-BMT. […] Representative images of hematoxylin/eosin-stained sections are shown; plaques are delineated by discontinuous lines (scale bar: 100 μm). Statistical significance was evaluated by 2-way ANOVA with Tukey multiple comparison test (*p<0.05, […]).
Lethally irradiated Ldlr−/− recipients were transplanted with suspensions of BM cells containing 10% CD45.2+ Tet2−/− cells and 90% CD45.1+ Tet2+/+ cells (10% KO-BMT mice), or 10% CD45.2+ Tet2+/+ cells and 90% CD45.1+ Tet2+/+ cells (10% WT-BMT mice) (Fig. S1). BM cells were isolated from femurs and tibias of donor mice after euthanasia. Donor CD45.2+ cells were obtained from Tet2+/+ or −/− littermates; donor CD45.1+ cells were obtained from Pep Boy mice. Recipient Ldlr−/− mice were irradiated in a pie cage (Braintree Scientific) to limit mobility and ensure equal dose of irradiation and were exposed to two radiation doses of 550 rad three hours apart using an X-RAD 320 Biological Irradiator. After the second irradiation, each recipient mouse was injected with 10^7 BM cells i.v. Sterilized caging, food and water were provided during the first 14 days post-transplant and water was supplemented with antibiotics (Sulfatrim). […]
Mice were euthanized and aortas were removed after in situ perfusion with phosphate-buffered saline (PBS) injected through the left ventricle of the heart. […] All histological sections comprising the aortic root as determined by the location of the aortic valve leaflets were cut at a thickness of 6 μm. An operator who was blinded to genotype quantified plaque size in aortic root sections by computer-assisted morphometric analysis of microscopy images acquired on a KEYENCE BZ-9000 microscope. For each mouse, atherosclerosis plaque size in aortic root cross-sections was calculated as the average of 5 independent sections separated by ˜18 μm.

[2] = system: heart failure by chronic ischemia (LAD ligation) in mice; assay: Post-infarction remodeling after permanent LAD ligation in BMT mice; format: in vivo
Description: 21A. Scheme of the experimental study. Mice underwent partial (10%) bone marrow reconstitution with Tet2-deficient cells or WT cells following lethal irradiation. After 8 weeks of recovery, mice underwent permanent LAD ligation. PBS or MCC-950 infusion by osmotic pump was initiated 1 week after LAD ligation for 4 weeks. 21B. […] 21C.
(§1) Heart failure was induced in C57/B16 mice by pressure overload, achieved by transverse aortic constriction (TAC), or by chronic ischemia, induced by the permanent ligation of the left anterior descending (LAD) artery (FIGS. 19, 20). In both models, Tet2-deficient hematopoietic cells were used to partially reconstitute the bone marrow of lethally irradiated mice, leading to their clonal expansion. Alternatively, Tet2 was specifically ablated in myeloid cells using Cre recombinase expressed from the LysM promoter. In mice, undergoing LAD ligation, Tet2-deficiency led to worsened cardiac remodeling and function regardless of the means of Tet2 ablation. In mice undergoing TAC, Tet2-deficiency led to greater hypertrophy and systolic dysfunction regardless of the means of Tet2 ablation.

[3] = system: heart failure by pressure overload (TAC) in mice; assay: Pressure overload (TAC) heart failure in BMT mice; format: in vivo
Description: 22A. Scheme of the experimental study. Mice underwent partial (10%) bone marrow reconstitution with Tet2-deficient cells or WT cells following lethal irradiation. After 8 weeks of recovery, mice underwent permanent TAC surgery to produce pressure overload on the heart. 22B. […] 22C. […] 22D. […] LVPWTd=left ventricle posterior wall thickness at diastole, FS=fractional shortening. 22E.
as §1

IL-1β expression = assay: qRT-PCR of IL-1β expression in LPS/IFNγ-treated peritoneal macrophages; format: cell-based, mouse; settings: 8 hours 10 ng/mL LPS and 2 ng/ml IFNγ; 0.5 μM TSA
Description: (§2) 14A. qRT-PCR analysis of IL-1β expression in peritoneal macrophages isolated from Tet2−/− or +/+ mice (n=3 mice/genotype) and treated for 8 hours with 10 ng/mL LPS and 2 ng/ml IFNγ in the absence or presence of 0.5 μM Trichostatin A (TSA). 14B. ChIP analysis of H3 acetylation in the IL-1β promoter of macrophages isolated from Tet2−/− or +/+ mice (n=6/genotype) after 10 hours of LPS/IFNγ treatment. 14C. qRT-PCR analysis of IL-6 expression in peritoneal macrophages isolated from Tet2−/−/ mice or +/+ controls (n=3 mice/genotype) and treated for 8 hours with 10 ng/mL LPS and 2 ng/ml IFNγ in the absence or presence of 0.5 μM TSA. 14D. […]
(§3) Thioglycollate-elicited macrophages were obtained from the peritoneal cavity of mice 4 days after intraperitoneal injection of 1 ml of aged 4% Brewer's thioglycollate broth (BD Difco). […] Cell cycle progression and apoptosis of cultured macrophages was evaluated by flow cytometry analysis of DNA content. […] For analysis of apoptosis induced by treatment with 7-ketocholesterol (Sigma), hypodiploid (SubG1) cells were quantified using with FLOWJO Software. Uptake of fluorescent dil-conjugated oxidized LDL (Alfa Aesar) was evaluated by flow cytometry analysis. […]
(§4) Total RNA from tissues and cultured cells was isolated using QIAZOL reagent and RNEASY kits (QIAGEN). […] Results were analyzed with the ΔΔCt method. […]

IL-6 expression = assay: qRT-PCR of IL-6 expression in LPS/IFNγ-treated peritoneal macrophages; format: cell-based, mouse; settings: 8 hours 10 ng/mL LPS and 2 ng/ml IFNγ; 0.5 μM TSA
Description: as §2, §3, §4

TNF expression = assay: qRT-PCR of TNF expression in LPS/IFNγ-treated peritoneal macrophages; format: cell-based, mouse; settings: HDAC inhibition with TSA in macrophages
Description: Although many details of its role in regulating chromatin architecture remain unknown, Tet2 has emerged as a multifaceted epigenetic regulator that is able to facilitate both transcription activation and repression depending on the molecular and cellular context. Given that Tet2 loss-of-function is associated with increased IL-1β gene expression, experiments were focused on potential mechanisms of Tet2-mediated transcriptional repression in macrophages.
as §3, with “Difco). Macrophages were allowed to adhere for 4 hours and cultured in RPMI medium supplemented with antibiotics and 10% FBS (PERFORMANCE PLUS FBS, Gibco).” for “Difco).”
as §4

[4] = mice reconstituted with Tet2-knockout bone marrow, after pressure overload

## CC(C)(O)c1coc(S(=O)(=O)NC(=O)Nc2c3c(cc4c2CCC4)CCC3)c1 [MCC950]
[1]; 10% KO-BMT mice
  decrease of atherosclerotic plaque size: ~50%
[1]; 10% WT-BMT controls, nonstatistically significant
  reduction of atherosclerotic plaque size: 20%
[1]
  difference in aortic plaque size between chimeric (10% KO-BMT) and nonchimeric control mice: eliminated
[2]; 5 week time point post-LAD ligation
  differences in cardiac parameters between Tet2-deficient and WT conditions: eliminates the differences in cardiac parameters
[2]; LAD ligation model (FIG. 21)
  development of heart failure: protected against the development of heart failure
[2]; Tet2-KO and wild-type bone marrow, osmotic pump infusion from 1 week after LAD ligation for 4 weeks
  cardiac remodeling, echocardiographic ejection fraction (EF): protects against adverse cardiac remodeling
[2]; after LAD ligation
  differences in cell size between Tet2-deficient and WT conditions: eliminates the differences in cell size
[2]; mice reconstituted with Tet2-KO and wild-type bone marrow
  cardiac myocyte hypertrophy after LAD ligation: inhibits the increase in cardiac myocyte hypertrophy
[3]; TAC model (FIG. 22)
  development of heart failure: protected against the development of heart failure
[3]; after pressure overload
  difference in cardiac fibrosis between Tet2-deficient and WT conditions: eliminates the difference in this parameter
  difference in myocyte CSA between Tet2-deficient and WT conditions: eliminates the difference in this parameters
  differences in HW and LW between Tet2-deficient and WT conditions: eliminates the differences in these parameters
  differences in echocardiographic parameters between Tet2-deficient and WT conditions: eliminates the differences in the echocardiographic parameters
[3]; after pressure overload, both strains of mice
  heart weight (HW) and wet lung weight (LW) adjusted by tibia length (TL): ameliorates the increase of cardiac and lung mass
[3]; after pressure overload, wild type and hematopoietic Tet2-KO mice
  myocyte cross-sectional area (CSA): inhibits hypertrophy
[3]; [4]
  cardiac fibrosis (Picro sirius staining): can be reversed
  deterioration of cardiac function (echocardiographic parameters, LVPWTd, FS): can be reversed

## CC(/C=C/C(=O)NO)=C\[C@@H](C)C(=O)c1ccc(N(C)C)cc1 [Trichostatin A]
IL-1β expression
  IL-1β expression (qRT-PCR): increased IL-1β expression
  IL-1β expression differences between Tet2-deficient and WT genotypes: abolished expression differences
IL-6 expression
  IL-6 expression differences between genotypes: did not affect differences between genotypes
  IL-6 transcript expression (qRT-PCR): reduced transcript expression
TNF expression
  TNF transcript expression: reduced transcript expression
